Reference: PubChem BioAssay AID1963875 (Molecular Pharmacology Branch, DTP, NCI, 2024)

Test system: KRAS-mutant PDC complex spheroid viability
Assay: Anticancer human tumor 186277-243-T-J2-PDC patient-derived colon adenocarcinoma cell line growth inhibition [KRAS2]
Conditions: for IC50: curve of first compound; for viability, T/C: stronger effect = lower value
Procedure, shortened: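 KRAS-mutant tumor cells were grown as spheroids with HUVEC endothelial cells and human MSCs as stroma. Targeted agents were tested alone and with KRAS pathway inhibitors. Doses started at or near clinical Cmax, or 10 microM, descending half-log.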

[1] = second compound 0.1 µM, first compound 0.0316 µM
[2] = second compound 0.1 µM, first compound 0.1 µM
[3] = second compound 0.1 µM, first compound 0.316 µM
[4] = second compound 0.1 µM, first compound 1 µM
[5] = second compound 0.1 µM, first compound 3.16 µM
[6] = second compound 0.316 µM, first compound 0.0316 µM
[7] = second compound 0.316 µM, first compound 0.1 µM
[8] = second compound 0.316 µM, first compound 0.316 µM
[9] = second compound 0.316 µM, first compound 1 µM
[10] = second compound 0.316 µM, first compound 3.16 µM
[11] = second compound 1 µM, first compound 0.0316 µM
[12] = second compound 1 µM, first compound 0.1 µM
[13] = second compound 1 µM, first compound 0.316 µM
[14] = second compound 1 µM, first compound 1 µM
[15] = second compound 1 µM, first compound 3.16 µM
[16] = second compound 3.16 µM, first compound 0.0316 µM
[17] = second compound 3.16 µM, first compound 0.1 µM
[18] = second compound 3.16 µM, first compound 0.316 µM
[19] = second compound 3.16 µM, first compound 1 µM
[20] = second compound 3.16 µM, first compound 3.16 µM
[21] = second compound 10 µM, first compound 0.0316 µM
[22] = second compound 10 µM, first compound 0.1 µM
[23] = second compound 10 µM, first compound 0.316 µM
[24] = second compound 10 µM, first compound 1 µM
[25] = second compound 10 µM, first compound 3.16 µM
[26] = second compound 0.1 µM, first compound 0.01 µM
[27] = second compound 0.316 µM, first compound 0.01 µM
[28] = second compound 1 µM, first compound 0.01 µM
[29] = second compound 3.16 µM, first compound 0.01 µM
[30] = second compound 10 µM, first compound 0.01 µM
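For viability, T/C in this document: viability read after seven days of compound exposure; 100% = DMSO vehicle-treated spheroids so lower means less viable.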

CC1OCC2(CCN(c3cnc(Sc4ccnc(N)c4Cl)c(N)n3)CC2)C1N (stereo not given) + CNCc1ccccc1-c1csc(C(C)Nc2nc(C)nc3cc(OC)c(OC)cc23)c1
IC50 (second compound 0.1 µM): > 10000 nM | IC50 (second compound 0.316 µM): > 10000 nM | IC50 (second compound 1 µM): > 10000 nM | IC50 (second compound 3.16 µM): 1520 nM | IC50 (second compound 10 µM): < 31.6 nM | viability, T/C [1]: 96.1% | viability, T/C [2]: 104% | viability, T/C [3]: 104% | viability, T/C [4]: 90.9% | viability, T/C [5]: 107% | viability, T/C (second compound 0.1 µM, first compound 10 µM): 105% | viability, T/C [6]: 103% | viability, T/C [7]: 99.8% | viability, T/C [8]: 111% | viability, T/C [9]: 108% | viability, T/C [10]: 104% | viability, T/C (second compound 0.316 µM, first compound 10 µM): 84.2% | viability, T/C [11]: 91.2% | viability, T/C [12]: 104% | viability, T/C [13]: 95% | viability, T/C [14]: 105% | viability, T/C [15]: 93.2% | viability, T/C (second compound 1 µM, first compound 10 µM): 60.5% | viability, T/C [16]: 85.2% | viability, T/C [17]: 72.8% | viability, T/C [18]: 102% | viability, T/C [19]: 71.4% | viability, T/C [20]: 11.4% | viability, T/C (second compound 3.16 µM, first compound 10 µM): 1.07% | viability, T/C [21]: 0.18% | viability, T/C [22]: 0.18% | viability, T/C [23]: 0.17% | viability, T/C [24]: 0.15% | viability, T/C [25]: 0.12% | viability, T/C (second compound 10 µM, first compound 10 µM): 0.15%

CC(=O)Nc1cccc(-n2c(=O)n(C3CC3)c(=O)c3c(Nc4ccc(I)cc4F)n(C)c(=O)c(C)c32)c1 + COc1cc2nc(C)nc(NC(C)c3cc(N)cc(C(F)(F)F)c3)c2cc1OC1CCOC1
IC50 (second compound 0.1 µM): 0.458 nM | IC50 (second compound 0.316 µM): 0.343 nM | IC50 (second compound 1 µM): 0.298 nM | IC50 (second compound 3.16 µM): 0.226 nM | IC50 (second compound 10 µM): < 0.1 nM | viability, T/C (second compound 0.1 µM, first compound 0.0001 µM): 116% | viability, T/C (second compound 0.1 µM, first compound 0.000316 µM): 68.2% | viability, T/C (second compound 0.1 µM, first compound 0.001 µM): 11.4% | viability, T/C (second compound 0.1 µM, first compound 0.00316 µM): 4.55% | viability, T/C [26]: 1.94% | viability, T/C [1]: 1.13% | viability, T/C (second compound 0.316 µM, first compound 0.0001 µM): 108% | viability, T/C (second compound 0.316 µM, first compound 0.000316 µM): 53% | viability, T/C (second compound 0.316 µM, first compound 0.001 µM): 10.2% | viability, T/C (second compound 0.316 µM, first compound 0.00316 µM): 3.15% | viability, T/C [27]: 2.07% | viability, T/C [6]: 1.01% | viability, T/C (second compound 1 µM, first compound 0.0001 µM): 118% | viability, T/C (second compound 1 µM, first compound 0.000316 µM): 46.3% | viability, T/C (second compound 1 µM, first compound 0.001 µM): 8.75% | viability, T/C (second compound 1 µM, first compound 0.00316 µM): 4.43% | viability, T/C [28]: 1.55% | viability, T/C [11]: 1.02% | viability, T/C (second compound 3.16 µM, first compound 0.0001 µM): 108% | viability, T/C (second compound 3.16 µM, first compound 0.000316 µM): 26% | viability, T/C (second compound 3.16 µM, first compound 0.001 µM): 6.24% | viability, T/C (second compound 3.16 µM, first compound 0.00316 µM): 2.83% | viability, T/C [29]: 1.04% | viability, T/C [16]: 0.82% | viability, T/C (second compound 10 µM, first compound 0.0001 µM): 13.9% | viability, T/C (second compound 10 µM, first compound 0.000316 µM): 3.04% | viability, T/C (second compound 10 µM, first compound 0.001 µM): 1.39% | viability, T/C (second compound 10 µM, first compound 0.00316 µM): 0.49% | viability, T/C [30]: 0.21% | viability, T/C [21]: 0.23%

CC(=O)OC12COC1CC(O)C1(C)C(=O)C(O)C3=C(C)C(OC(=O)C(O)C(NC(=O)OC(C)(C)C)c4ccccc4)CC(O)(C(OC(=O)c4ccccc4)C21)C3(C)C (stereo not given) + COc1cc2nc(C)nc(NC(C)c3cc(N)cc(C(F)(F)F)c3)c2cc1OC1CCOC1
IC50 (second compound 0.1 µM): < 10 nM | IC50 (second compound 0.316 µM): < 10 nM | IC50 (second compound 1 µM): < 10 nM | IC50 (second compound 3.16 µM): < 10 nM | IC50 (second compound 10 µM): < 10 nM | viability, T/C [26]: 4.45% | viability, T/C [1]: 5.2% | viability, T/C [2]: 2.78% | viability, T/C [3]: 2.85% | viability, T/C [4]: 2.91% | viability, T/C [5]: 3.62% | viability, T/C [27]: 4.29% | viability, T/C [6]: 3.35% | viability, T/C [7]: 2.81% | viability, T/C [8]: 2.36% | viability, T/C [9]: 2.72% | viability, T/C [10]: 2.69% | viability, T/C [28]: 3.08% | viability, T/C [11]: 4.27% | viability, T/C [12]: 3.44% | viability, T/C [13]: 3.47% | viability, T/C [14]: 3.46% | viability, T/C [15]: 2.96% | viability, T/C [29]: 3.01% | viability, T/C [16]: 2.78% | viability, T/C [17]: 2.73% | viability, T/C [18]: 2.51% | viability, T/C [19]: 2.54% | viability, T/C [20]: 2.73% | viability, T/C [30]: 3.2% | viability, T/C [21]: 3.03% | viability, T/C [22]: 2.84% | viability, T/C [23]: 3% | viability, T/C [24]: 2.42% | viability, T/C [25]: 2.82%
